Series [1] concerns the target T1, ROCK1 (Homo sapiens, UniProt Q13464).
T1 construct: purchased Eurofins DiscoverX Corporation 87-1003DR; host or cells: E. coli BL21-derived host (T7 phage) or HEK-293
Description: Binding (KINOMEscan) ROCK1 Inhibitor. The settings on record: for IC50: read-out: RC50, result type IC50; for Emax: read-out: Max response. As to the method: (§1) For most assays, kinase-tagged T7 phage strains were grown in parallel in 24-well blocks in an E. coli host derived from the BL21 strain. E. coli were grown to log-phase and infected with T7 phage from a frozen stock (multiplicity of infection=0.4) and incubated with shaking at 32° C. until lysis (90-150 min). The lysates were centrifuged (6,000×g) and filtered (0.2 μm) to remove cell debris. The remaining kinases were produced in HEK-293 cells and subsequently tagged with DNA for qPCR detection. Streptavidin-coated magnetic beads were treated with biotinylated small molecule ligands for 30 min at RT to generate affinity resins for kinase assays. The liganded beads were blocked with excess biotin and washed with blocking buffer (SeaBlock (Pierce), 1% BSA, 0.05% Tween 20, 1 mM DTT) to remove unbound ligand and to reduce non-specific phage binding. […] All reactions were performed in polypropylene 384-well plates in a final volume of 0.02 mL. […] The beads were then re-suspended in elution buffer (1×PBS, 0.05% Tween 20, 0.5 μM non-biotinylated affinity ligand) and incubated at RT with shaking for 30 min. The kinase concentration in the eluates was measured by qPCR.
(§2) The kinase concentration in the eluates was measured by qPCR. qPCR reactions were assembled by adding 2.5 μL of kinase eluate to 7.5 μL of qPCR master mix containing 0.15 μM amplicon primers and 0.15 μM amplicon probe. The qPCR protocol consisted of a 10 min hot start at 95° C., followed by 35 cycles of 95° C. for 15 sec, 60° C. for 1 min.
(§3) Binding constants (Kds) were calculated with a standard dose-response curve using the Hill equation: […]

Series [2] deals with CNR2 (Homo sapiens, UniProt P34972). Nature of the series: cAMP CNR2 Agonist. The conditions noted are these: for Emax: read-out: Max response.
CNR2, sequence (P34972 whole entry): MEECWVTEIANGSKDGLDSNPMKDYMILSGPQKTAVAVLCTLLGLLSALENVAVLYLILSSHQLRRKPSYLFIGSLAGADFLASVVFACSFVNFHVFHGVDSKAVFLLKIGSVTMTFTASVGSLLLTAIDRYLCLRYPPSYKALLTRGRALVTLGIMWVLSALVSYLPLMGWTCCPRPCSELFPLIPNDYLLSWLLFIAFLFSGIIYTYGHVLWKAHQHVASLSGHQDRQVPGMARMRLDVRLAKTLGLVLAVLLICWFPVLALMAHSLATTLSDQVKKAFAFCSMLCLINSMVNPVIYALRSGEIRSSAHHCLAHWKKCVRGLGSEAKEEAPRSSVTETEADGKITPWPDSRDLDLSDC
Description: (§4) In vitro pharmacological profiling of compounds was done against 78 functional assays for 47 common off-targets (30) by Eurofins DiscoverX Corporation (Fremont, CA, USA) using their SAFETYscan E/IC50 ELECT service (Cat Ref 87-1003DR, Safety47 Panel Dose Response). […] Compounds were tested in a range of 10 concentrations, following a 3-fold serial dilution, starting from 10 μM. The assays were performed utilizing the PathHunter enzyme fragment complementation (EFC) technology, FLIPR®-based cellular screening assays, and KINOMEscan kinase binding assays.
(§5) cAMP Hunter cell lines were expanded from freezer stocks. Prior to testing, cells were seeded in a total volume of 20 μL into white walled 384-well microplates and incubated at 37° C. cAMP modulation was determined using the DiscoverX HitHunter cAMP XS+ assay. For Gs agonist determination, cells were incubated with sample to induce response. For Gi agonist determination, cells were incubated with sample in the presence of EC80 forskolin to induce response. For both conditions, media was aspirated from cells and replaced with 15 μL 2:1 HBSS/10 mM HEPES:cAMP XS+ Ab reagent. Intermediate dilution of sample stocks was performed to generate 4× sample in assay buffer (containing 4×EC80 forskolin in the case of antagonist determination). 5 μL of 4× sample was added to cells and incubated at 37° C. or room temperature (RT) for 30 or 60 min. Final assay vehicle concentration was 1%. For antagonist determination, cells were pre-incubated with sample followed by agonist challenge at the EC80 concentration. Media was aspirated from cells and replaced with 10 μL 1:1 HBSS/HEPES:cAMP XS+ Ab reagent. 5 μL of 4× compound was added to the cells and incubated at 37° C. or RT for 30 min. 5 μL of 4×EC80 agonist was added to the cells and incubated at 37° C. or RT for 30 or 60 min. For Gi coupled GPCRs, EC80 forskolin was included. […] Microplates were read following signal generation with a PerkinElmer Envision™ instrument for chemiluminescent signal detection. Compound activity was analyzed using CBIS data analysis suite (ChemInnovation, CA).
For series [3], the target named is HTR2B (Homo sapiens, UniProt P41595). Nature of the series: Calcium Flux HTR2B Antagonist. The conditions noted are these: for Emax: read-out: Max response. Background: Calcium flux is commonly read through the fluorescence of an indicator in the cells.
HTR2B, sequence (P41595 whole entry): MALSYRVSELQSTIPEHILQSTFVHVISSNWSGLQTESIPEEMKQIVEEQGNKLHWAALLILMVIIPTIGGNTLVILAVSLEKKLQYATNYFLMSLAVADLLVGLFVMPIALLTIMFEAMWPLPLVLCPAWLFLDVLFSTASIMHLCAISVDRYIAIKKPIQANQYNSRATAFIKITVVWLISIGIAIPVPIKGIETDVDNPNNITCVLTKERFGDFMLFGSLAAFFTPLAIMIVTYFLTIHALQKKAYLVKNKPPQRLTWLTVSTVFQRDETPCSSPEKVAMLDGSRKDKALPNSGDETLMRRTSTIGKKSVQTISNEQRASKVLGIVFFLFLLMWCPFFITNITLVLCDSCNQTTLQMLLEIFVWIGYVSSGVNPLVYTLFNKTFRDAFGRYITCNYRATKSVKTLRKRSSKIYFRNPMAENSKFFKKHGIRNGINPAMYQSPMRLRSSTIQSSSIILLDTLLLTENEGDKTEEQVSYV
Description: as §4
Prior to testing, cells (10,000 cells/well) were expanded from freezer stocks and seeded into a total volume of 50 μL into black walled, clear-bottom, Poly-D-lysine coated 384-well microplates and incubated at 37° C. […] Assays were performed in 1× dye loading buffer consisting of 1× Dye (DiscoverX, Calcium No Wash^PLUS kit, Catalog No. 90-0091), 1× Additive A and 2.5 mM Probenecid in HBSS/20 mM HEPES. Probenecid was prepared fresh. Prior to testing, media was aspirated from cells and replaced with 25 μL dye loading buffer. Cells were incubated for 45 min at 37° C. and then 20 min at RT. For agonist determination, 25 μL of 2× compound in HBSS/20 mM HEPES was added using a FLIPR Tetra (MDS). For antagonist determination, cells were pre-incubated with sample followed by agonist challenge at the EC80 concentration. 25 μL of 2× sample was added and cells were incubated for 30 min at RT in the dark to equilibrate plate temperature. After incubation, antagonist determination was initiated by addition of 25 μL of 1× compound with 3×EC80 agonist using FLIPR. For both agonist and antagonist formats, activity was measure on a FLIPR Tetra (MDS). Calcium mobilization was monitored for 2 min with a 5 sec baseline read.
FLIPR read—Area under the curve, was calculated for the entire 2 min read. Compound activity was analysed using CBIS data analysis suite (ChemInnovation, CA).
Series [4] concerns the target OPRK1 (Homo sapiens, UniProt P41145). Description: cAMP OPRK1 Agonist. The settings on record: for Emax: read-out: Max response.
Description: (§6) In vitro pharmacological profiling of compounds was done against 78 functional assays for 47 common off-targets (30) by Eurofins DiscoverX Corporation (Fremont, CA, USA) using their SAFETYscan E/IC50 ELECT service (Cat Ref 87-1003DR, Safety47 Panel Dose Response). […] Compounds were tested in a range of 10 concentrations, following a 3-fold serial dilution, starting from 10 μM.
as §5
The test system of series [5] is 47 common off-targets. Nature of the series: Safety47 panel in vitro pharmacological profiling (overall). The settings on record: for potential off-targets (number): 78 functional assays, 47 off-targets, up to 10 μM.
Description: The following assays were performed: (1) GPCR cAMP modulation, (2) calcium mobilization, (3) nuclear hormone receptor assays, (4) KINOMEscan binding assays, (5) ion channel assays, (6) transporter assays and (7) enzymatic assays. Compounds were tested in a range of 10 concentrations, following a 3-fold serial dilution, starting from 10 μM. The assays were performed utilizing the PathHunter enzyme fragment complementation (EFC) technology, FLIPR®-based cellular screening assays, and KINOMEscan kinase binding assays.
Series [6] deals with T2, HTR3A (Homo sapiens, UniProt P46098).
T2 sequence (P46098 24-478): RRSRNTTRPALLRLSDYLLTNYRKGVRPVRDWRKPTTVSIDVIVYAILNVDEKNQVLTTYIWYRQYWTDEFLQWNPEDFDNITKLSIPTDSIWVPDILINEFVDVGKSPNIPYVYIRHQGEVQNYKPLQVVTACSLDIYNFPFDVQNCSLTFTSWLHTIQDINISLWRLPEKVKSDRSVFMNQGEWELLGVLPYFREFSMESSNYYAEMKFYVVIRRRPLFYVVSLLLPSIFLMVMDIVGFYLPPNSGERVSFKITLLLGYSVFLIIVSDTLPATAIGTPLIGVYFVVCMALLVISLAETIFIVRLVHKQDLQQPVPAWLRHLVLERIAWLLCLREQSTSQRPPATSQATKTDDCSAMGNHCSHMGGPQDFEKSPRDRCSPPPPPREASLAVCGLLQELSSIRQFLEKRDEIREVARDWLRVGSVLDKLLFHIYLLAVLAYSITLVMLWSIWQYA
Nature of the series: Ion Channel HTR3A Opener. The conditions noted are these: for Emax: Ion Channel HTR3A Opener, read-out: Max response. It is filed as cell-based.

Series [7] concerns the target T3, VEGFR2 (Homo sapiens, UniProt P35968).
T3 construct: purchased Eurofins DiscoverX Corporation 87-1003DR; host or cells: E. coli BL21-derived host (T7 phage) or HEK-293
Description: Binding (KINOMEscan) VEGFR2 Inhibitor. The settings on record: for IC50: read-out: RC50, result type IC50; for Emax: read-out: Max response. As to the method:
as §1, §2, §3

In series [8] the target is DRD2S (Homo sapiens, UniProt P14416). Nature of the series: cAMP DRD2S Agonist. The conditions noted are these: for Emax: read-out: Max response.
DRD2S, sequence (P14416 1-414 isoform P14416-2): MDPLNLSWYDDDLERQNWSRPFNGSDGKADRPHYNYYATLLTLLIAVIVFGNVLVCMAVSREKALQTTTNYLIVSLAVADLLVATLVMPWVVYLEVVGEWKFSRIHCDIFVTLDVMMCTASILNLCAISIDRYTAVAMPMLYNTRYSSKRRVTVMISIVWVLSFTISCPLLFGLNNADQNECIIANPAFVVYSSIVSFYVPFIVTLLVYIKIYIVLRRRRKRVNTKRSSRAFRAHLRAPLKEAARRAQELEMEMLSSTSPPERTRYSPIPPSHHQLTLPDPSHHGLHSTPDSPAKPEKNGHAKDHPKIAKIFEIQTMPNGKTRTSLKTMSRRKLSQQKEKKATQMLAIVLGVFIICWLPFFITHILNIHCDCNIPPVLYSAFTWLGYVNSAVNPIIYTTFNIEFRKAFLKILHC
Description: as §6, §5
Series [9] addresses T4, PDE3A (Homo sapiens, UniProt Q14432).
T4 construct: purchased Signal Chem
Description: Enzymatic PDE3A Inhibitor. It is filed as biochemical. The settings on record: for IC50: read-out: RC50, result type IC50; for Emax: read-out: Max response. As to the method:
Enzyme preparations were sourced from various vendors-AChE (R&D Systems), COX1 and COX2 (BPS Bioscience), MAOA (Sigma), PDE3A and PDE4D2 (Signal Chem). AChE: enzyme and test compound were pre-incubated for 15 min at RT before substrate addition. Acetylthiocholine and DTNB were added and incubated at RT for 30 min. Signal was detected by measuring absorbance at 405 nm. COX1 and COX2: enzyme stocks were diluted in assay buffer (40 mM Tris-HCl, 1×PBS, 0.5 mM Phenol, 0.01% Tween 20 and 10 nM Hematin) and allowed to equilibrate with compounds at RT for 30 min (binding incubation). Arachidonic acid (1.7 μM) and Ampliflu Red (2.5 μM) were prepared and dispended into a reaction plate. Plates were read immediately on a fluorimeter with the emission detection at 590 nm and excitation wavelength 544 nm. MAOA: enzyme and test compound were pre-incubated for 15 min at 37° C. before substrate addition. The reaction was initiated by addition of kynuramine and incubated at 37° C. for 30 min. The reaction was terminated by addition of NaOH. The amount of 4-hydroquinoline formed was determined through spectrofluorometric readout with the emission detection at 380 nm and excitation wavelength 310 nm. PDE3A and PDE4D2: enzyme and test compound were pre-incubated for 15 min at RT before substrate addition. cAMP substrate (at a concentration equal to EC80) was added and incubated at RT for 30 min. Enzyme reaction was terminated by addition of 9 mM IBMX. Signal was detected using the HitHunter® cAMP detection kit. Microplates were transferred to a PerkinElmer Envision™ instrument and read out as described for each assay. […] For enzyme activity assays, percentage inhibition was calculated using the following equation: […]

SMILES strings stand for the structures. Like-named read-outs stand apart in the source and are kept apart here.

OPRK1, sequence (P41145 whole entry): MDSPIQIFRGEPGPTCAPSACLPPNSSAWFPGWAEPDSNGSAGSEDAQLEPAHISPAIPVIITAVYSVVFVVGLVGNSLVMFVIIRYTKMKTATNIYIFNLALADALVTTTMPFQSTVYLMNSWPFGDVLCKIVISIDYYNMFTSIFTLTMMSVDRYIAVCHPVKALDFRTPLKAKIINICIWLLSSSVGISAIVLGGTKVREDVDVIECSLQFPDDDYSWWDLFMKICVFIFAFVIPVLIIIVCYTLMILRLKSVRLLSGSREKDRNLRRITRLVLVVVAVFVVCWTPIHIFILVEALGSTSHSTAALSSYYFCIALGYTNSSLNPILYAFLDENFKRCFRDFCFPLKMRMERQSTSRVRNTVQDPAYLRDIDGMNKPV
T4 sequence (Q14432 whole entry): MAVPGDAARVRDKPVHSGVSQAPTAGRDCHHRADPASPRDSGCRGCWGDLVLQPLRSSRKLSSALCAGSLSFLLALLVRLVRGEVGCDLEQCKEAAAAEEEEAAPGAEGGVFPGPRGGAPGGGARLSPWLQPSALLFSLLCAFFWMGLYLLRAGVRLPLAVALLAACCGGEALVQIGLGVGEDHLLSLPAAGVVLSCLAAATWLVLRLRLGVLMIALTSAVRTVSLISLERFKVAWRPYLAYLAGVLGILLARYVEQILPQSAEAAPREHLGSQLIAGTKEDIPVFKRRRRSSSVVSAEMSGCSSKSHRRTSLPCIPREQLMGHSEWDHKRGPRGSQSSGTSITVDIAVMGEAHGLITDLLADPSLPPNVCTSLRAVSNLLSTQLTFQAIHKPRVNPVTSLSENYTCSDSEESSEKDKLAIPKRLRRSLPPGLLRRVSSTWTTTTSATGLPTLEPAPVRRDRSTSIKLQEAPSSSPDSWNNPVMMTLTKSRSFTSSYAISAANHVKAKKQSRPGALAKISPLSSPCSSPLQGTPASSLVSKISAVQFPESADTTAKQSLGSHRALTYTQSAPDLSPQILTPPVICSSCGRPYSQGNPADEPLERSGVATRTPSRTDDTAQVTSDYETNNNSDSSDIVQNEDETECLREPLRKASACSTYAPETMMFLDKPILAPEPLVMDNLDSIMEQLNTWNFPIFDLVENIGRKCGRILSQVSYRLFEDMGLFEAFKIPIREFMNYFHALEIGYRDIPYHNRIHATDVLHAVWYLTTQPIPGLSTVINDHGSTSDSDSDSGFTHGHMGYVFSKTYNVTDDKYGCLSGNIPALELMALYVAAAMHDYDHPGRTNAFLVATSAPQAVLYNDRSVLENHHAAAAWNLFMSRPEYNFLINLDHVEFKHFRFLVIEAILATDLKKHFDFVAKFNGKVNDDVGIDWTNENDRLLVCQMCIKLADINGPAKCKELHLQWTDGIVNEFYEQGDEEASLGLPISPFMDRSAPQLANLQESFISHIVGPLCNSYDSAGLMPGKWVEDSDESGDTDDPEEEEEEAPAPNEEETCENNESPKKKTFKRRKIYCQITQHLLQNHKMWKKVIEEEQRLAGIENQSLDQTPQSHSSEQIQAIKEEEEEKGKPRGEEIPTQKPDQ
T1 sequence (Q13464 whole entry): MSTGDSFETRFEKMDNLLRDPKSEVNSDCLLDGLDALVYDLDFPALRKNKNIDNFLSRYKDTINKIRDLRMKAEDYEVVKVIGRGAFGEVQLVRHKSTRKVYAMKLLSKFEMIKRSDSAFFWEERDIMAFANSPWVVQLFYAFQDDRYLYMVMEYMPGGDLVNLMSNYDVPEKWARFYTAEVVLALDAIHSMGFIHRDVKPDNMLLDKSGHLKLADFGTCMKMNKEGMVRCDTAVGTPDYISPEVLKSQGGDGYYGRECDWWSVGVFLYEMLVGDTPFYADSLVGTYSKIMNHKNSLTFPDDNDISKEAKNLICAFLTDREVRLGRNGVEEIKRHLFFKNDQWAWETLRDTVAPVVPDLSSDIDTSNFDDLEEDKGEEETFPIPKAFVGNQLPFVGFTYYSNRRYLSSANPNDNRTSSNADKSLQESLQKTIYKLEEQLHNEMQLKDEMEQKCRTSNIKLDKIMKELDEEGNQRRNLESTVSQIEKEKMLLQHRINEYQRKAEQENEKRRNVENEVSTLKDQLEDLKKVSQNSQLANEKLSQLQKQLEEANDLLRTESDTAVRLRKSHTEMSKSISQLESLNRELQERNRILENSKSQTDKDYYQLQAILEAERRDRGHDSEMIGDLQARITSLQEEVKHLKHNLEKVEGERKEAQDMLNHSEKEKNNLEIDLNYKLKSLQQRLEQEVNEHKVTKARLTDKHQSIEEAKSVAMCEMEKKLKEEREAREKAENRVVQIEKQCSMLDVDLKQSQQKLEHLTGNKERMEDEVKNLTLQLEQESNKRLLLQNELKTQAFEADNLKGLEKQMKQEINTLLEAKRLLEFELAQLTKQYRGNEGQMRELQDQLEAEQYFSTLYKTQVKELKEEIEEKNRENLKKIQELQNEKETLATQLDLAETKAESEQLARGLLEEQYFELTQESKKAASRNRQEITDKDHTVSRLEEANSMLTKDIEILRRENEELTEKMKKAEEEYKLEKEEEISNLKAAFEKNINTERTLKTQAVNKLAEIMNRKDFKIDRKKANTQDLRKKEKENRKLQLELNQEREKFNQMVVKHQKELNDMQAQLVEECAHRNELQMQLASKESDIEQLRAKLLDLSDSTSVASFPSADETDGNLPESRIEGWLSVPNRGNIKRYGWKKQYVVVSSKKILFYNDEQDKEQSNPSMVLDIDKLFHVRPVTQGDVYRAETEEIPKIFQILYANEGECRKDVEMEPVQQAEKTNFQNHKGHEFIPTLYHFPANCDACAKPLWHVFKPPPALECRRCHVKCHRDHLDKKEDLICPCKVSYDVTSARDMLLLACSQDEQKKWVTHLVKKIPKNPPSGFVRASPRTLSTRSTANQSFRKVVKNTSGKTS

One may read the IC50 as the concentration that inhibits the measured activity by half. The EC50 is the concentration at which the effect is half-maximal. With `CC(C)(C)c1ccc(C#CC(O)c2ccccc2)cc1` (racemic) [Compound 3.3, rac-3-(4-(tert-butyl)phenyl)-1-phenylprop-2-yn-1-ol], the IC50 in series [1] (Binding ROCK1 Inhibitor) is greater than 10 µM; in [3], greater than 10 µM; in [5] (read-out: IC50 values at the potential off-targets, CHRM2, DRD2S, HTR1B, nAChR a4/b2), 4 to 8 µM; in series [7] (Binding VEGFR2 Inhibitor), greater than 10 µM; in series [9] (Enzymatic PDE3A Inhibitor), greater than 10 µM. In addition, the Emax in series [1] was determined as 0%; in series [2] it was 38.1%; in series [3], 0%; in series [4] it was 0%; in [6], 0%; in series [7], 0%. Besides, the Emax came to 0% in series [8] and 0.6% in [9]. In addition, the EC50 in series [2], in [4], in [6] and in [8] was greater than 10 µM throughout. Moreover, in series [5], the “potential off-targets (number)” value is 4.

On to `Clc1cccc(C#Cc2n[nH]c3ncccc23)c1` [Compound 10.1, 3-((3-chlorophenyl)ethynyl)-1H-pyrazolo[3,4-b]pyridine], for which the Emax in series [1] (Binding ROCK1 Inhibitor) worked out at 4.2%; in series [2], 49.3%; in [3] it was 8.8%; in series [4] it was 5.4%; in series [6] it was 3.4%; in series [7] (Binding VEGFR2 Inhibitor), 5.4%. For the same molecule, the figures for the Emax in series [8] and in series [9] (Enzymatic PDE3A Inhibitor) were 15% and 0.1%, respectively. Besides, the IC50 in [1] (Binding ROCK1 Inhibitor), in series [3], in series [7] (Binding VEGFR2 Inhibitor) and in [9] (Enzymatic PDE3A Inhibitor) was greater than 10 µM throughout. In addition, the EC50 in [2], in series [4], in series [6] and in series [8] was greater than 10 µM in each case. Also, the “potential off-targets (number)” value in series [5] was “none”.

The values above are taken from patent US20250186408A1, “TREATMENT OF PHARMACORESISTANT EPILEPSY” (Katholieke Universiteit Leuven, priority 2021, published 2025).
